{
  "source": "patent EP0162695A1",
  "about": "“6-Oxygenated-1,3,,4,5-Tetrahydrobenz(cd)indol-4-amines” (SMITHKLINE BEECHAM CORPORATION, priority 1984, dated 1985)",
  "biological_target": "5-HTl receptor",
  "assay": "antagonism of the effect of serotonin in an in vitro dog basilar artery preparation",
  "assay_type": "biochemical",
  "from_the_text": "Also, selective 5-HTl receptor antagonist activity of the compounds of formula (I) may be shown by the ability to antagonize the effect of serotonin in an in vitro dog basilar artery preparation, Peroutka et al, Brain Research 259:327-330 (1983).",
  "data": [
    {"smiles": "COc1ccc2[nH]cc3c2c1CC(N)C3", "note": "(stereo not shown) [example 1, 6-methoxy-l,3,4,5-tetrahydrobenz[cd]indole-4-amine hemioxalate]", "values": [
      {"measurement": "Kb", "result": 463, "unit": "nM"}
    ]}
  ]
}
